From ChEMBL document CHEMBL2176918, “Design and optimization of pyrazinecarboxamide-based inhibitors of diacylglycerol acyltransferase 1 (DGAT1) leading to a clinical candidate dimethylpyrazinecarboxamide phenylcyclohexylacetic acid (AZD7687)” (J Med Chem, 2012)
pIC50: −log10 of the molar value. ≈ marks a conversion by molar mass, not a printed value.

Tests used:
[1] = Lipophilicity, log D of the compound at pH 7.4 by chromatographic method; details: buffer
[2] = molecular target: T1, Diacylglycerol O-acyltransferase 1 (Homo sapiens, UniProt O75907)
T1 sequence (O75907 whole entry): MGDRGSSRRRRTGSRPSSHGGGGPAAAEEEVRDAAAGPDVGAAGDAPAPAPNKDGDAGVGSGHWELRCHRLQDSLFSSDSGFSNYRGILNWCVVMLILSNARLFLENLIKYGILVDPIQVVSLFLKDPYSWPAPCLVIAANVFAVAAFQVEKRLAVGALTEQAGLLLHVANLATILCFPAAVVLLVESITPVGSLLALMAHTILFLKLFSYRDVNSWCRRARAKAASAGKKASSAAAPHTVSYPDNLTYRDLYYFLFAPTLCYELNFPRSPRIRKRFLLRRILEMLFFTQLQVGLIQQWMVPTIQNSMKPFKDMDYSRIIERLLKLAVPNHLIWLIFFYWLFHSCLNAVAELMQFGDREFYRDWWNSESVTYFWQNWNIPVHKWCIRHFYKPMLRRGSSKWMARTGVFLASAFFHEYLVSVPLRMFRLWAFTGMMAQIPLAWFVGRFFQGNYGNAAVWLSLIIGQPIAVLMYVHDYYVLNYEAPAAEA
Description: (§1) Inhibition of human recombinant DGAT1 expressed in Sf9 cells by liquid scintillography

[3] = Intrinsic clearance in rat hepatocytes assessed as parent compound disappearance at 1 uM per 10^6 cells; assay type: ADME, cell-based, Hepatocyte; details: read-out: CLH
[4] = molecular target: T2, Sterol O-acyltransferase 1 (Homo sapiens, UniProt P35610)
T2 sequence (P35610 whole entry): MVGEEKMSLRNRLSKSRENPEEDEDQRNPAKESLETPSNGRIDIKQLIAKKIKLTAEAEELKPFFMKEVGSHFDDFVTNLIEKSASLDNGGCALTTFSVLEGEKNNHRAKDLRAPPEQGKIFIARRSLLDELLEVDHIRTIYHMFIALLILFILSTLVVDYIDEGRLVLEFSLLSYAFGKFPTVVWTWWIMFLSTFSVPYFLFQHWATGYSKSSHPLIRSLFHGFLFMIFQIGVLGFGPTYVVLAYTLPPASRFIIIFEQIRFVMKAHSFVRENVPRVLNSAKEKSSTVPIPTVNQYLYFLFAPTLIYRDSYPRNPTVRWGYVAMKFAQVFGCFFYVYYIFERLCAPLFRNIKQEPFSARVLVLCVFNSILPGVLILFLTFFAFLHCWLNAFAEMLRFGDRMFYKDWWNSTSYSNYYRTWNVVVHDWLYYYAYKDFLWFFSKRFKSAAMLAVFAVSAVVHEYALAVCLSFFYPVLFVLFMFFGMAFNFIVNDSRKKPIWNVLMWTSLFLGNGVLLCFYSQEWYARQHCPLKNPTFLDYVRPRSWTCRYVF
Description: Inhibition of human ACAT1 by liquid scintillography

[5] = Solubility in 0.1 M phosphate buffer at pH 7.4 at 25 degC incubated for 24 hrs
[6] = Fraction unbound in human plasma at 37 degC by LC-UV/MS method based equilibrium dialysis method
[7] = Apparent permeability from apical to basolateral side in MDCK cells at pH 7.4; details: dog
[8] = Half life in Han-Wistar rat at 2.54 to 5.4 uM/kg, po; assay type: ADME, organism-based; details: in vivo
[9] = Stability in pH 7.8 buffer assessed as compound degradation incubated for 45 mins; assay type: physicochemical; details: pH 7.8, 0.75 h
[10] = Stability in pH 7.8 buffer assessed as acyl migration incubated for 45 mins; assay type: physicochemical; details: pH 7.8, 0.75 h
[11] = molecular target: T1, Diacylglycerol O-acyltransferase 1; details: sf9
Description: as §1

[12] = Apparent permeability from apical to basolateral side in human Caco2 cells at pH 7.4; assay type: ADME, cell-based; details: Caco-2, pH 7.4
[13] = Oral bioavailability in rat; details: in vivo
[14] = Octanol/water partition coefficient, log D of the compound at pH 7.4; assay type: physicochemical

## Cc1nc(C)c(-c2ccc3c(c2)CC[C@]32CC[C@@H](Cc3nnn[nH]3)CC2)nc1C(N)=O
[1]
  chromatographic logD: 2

## Cc1nc(C)c(-c2ccc3c(c2)CC[C@]32CC[C@@H](c3nnn[nH]3)CC2)nc1C(N)=O
[1]
  chromatographic logD: 1.4

## Cc1nc(C)c(-c2ccc(C34CCC(C(=O)O)(CC3)CC4)cc2)nc1C(N)=O
[2]
  pIC50: 7.10
[3]
  hepatocyte CLint at 1 µM: < 2 µL/min/1e6 cells
[4]
  pIC50: 4.82
[5]
  solubility at 24 h: 113 µM (≈ 42.9 µg/mL)
[6]
  fraction unbound: 0.006
[7]
  Papp A→B: 13 ×10⁻⁶ cm/s
[8]
  half-life: 7.3 h
[1]
  chromatographic logD: 1.6

## Cc1nc(C)c(-c2ccc(C34CCC(CC(=O)O)(CC3)CC4)cc2)nc1C(N)=O
[1]
  chromatographic logD: 1.3

## Cc1nc(C)c(-c2ccc([C@H]3CC[C@H](CC(=O)O[C@@H]4O[C@H](C(=O)O)[C@@H](O)[C@H](O)[C@H]4O)CC3)cc2)nc1C(N)=O
[9]
  Stability: Stable
[10]
  Stability: Stable

## CNC(=O)c1cnc(C)c(-c2ccc([C@H]3CC[C@H](CC(=O)O)CC3)cc2)n1
[11]
  IC50: Not Active
[1]
  chromatographic logD: 0.9

## Cc1ncc(C(=O)N(C)C)nc1-c1ccc([C@H]2CC[C@H](CC(=O)O)CC2)cc1
[11]
  IC50: Not Active
[1]
  chromatographic logD: 0.7

## Cc1ncc(C(=O)NCc2ccccc2)nc1-c1ccc([C@H]2CC[C@H](CC(=O)O)CC2)cc1
[11]
  IC50: Not Active
[1]
  chromatographic logD: 2.7

## Cc1ncc(C(=O)N2CCOCC2)nc1-c1ccc([C@H]2CC[C@H](CC(=O)O)CC2)cc1
[11]
  IC50: Not Active
[1]
  chromatographic logD: 0.7

## Cc1ncc(C(=O)O)nc1-c1ccc([C@H]2CC[C@H](CC(=O)O)CC2)cc1
[11]
  IC50: Not Active
[1]
  chromatographic logD: < 0

## Cc1nc(C)c(-c2ccc([C@H]3CC[C@H](CC(=O)O)CC3)cc2)nc1C(=O)O
[11]
  IC50: Not Active

## NCc1cncc(-c2ccc([C@H]3CC[C@H](CC(=O)O)CC3)cc2)n1
[11]
  IC50: Not Active
[1]
  chromatographic logD: < 0

## N=C(N)c1cncc(-c2ccc([C@H]3CC[C@H](CC(=O)O)CC3)cc2)n1
[2]
  pIC50: < 4.48
[1]
  chromatographic logD: < 0

## N#C/N=C(\N)c1cncc(-c2ccc([C@H]3CC[C@H](CC(=O)O)CC3)cc2)n1
[11]
  IC50: Not Active
[1]
  chromatographic logD: 1.2

## Cc1ncc(C(N)=S)nc1-c1ccc([C@H]2CC[C@H](CC(=O)O)CC2)cc1
[1]
  chromatographic logD: 1.8

## NC(=O)c1cncc(-c2ccc([C@H]3CC[C@H](CC(=O)O)CC3)cc2)c1
[1]
  chromatographic logD: 0

## NC(=O)c1cccc(-c2ccc([C@H]3CC[C@H](CC(=O)O)CC3)cc2)n1
[1]
  chromatographic logD: 0.8

## Cc1ccc(C(N)=O)nc1-c1ccc([C@H]2CC[C@H](CC(=O)O)CC2)cc1
[1]
  chromatographic logD: 1.3

## Cc1nc(C(F)F)c(C(N)=O)nc1-c1ccc([C@H]2CC[C@H](CC(=O)O)CC2)cc1
[1]
  chromatographic logD: 1.4

## CCc1nc(C)c(-c2ccc([C@H]3CC[C@H](CC(=O)O)CC3)cc2)nc1C(N)=O
[1]
  chromatographic logD: 1.5

## Cc1nc(C(C)C)c(C(N)=O)nc1-c1ccc([C@H]2CC[C@H](CC(=O)O)CC2)cc1
[2]
  pIC50: < 5.00
[1]
  chromatographic logD: 2.6

## Cc1nc(-c2ccccc2)c(C(N)=O)nc1-c1ccc([C@H]2CC[C@H](CC(=O)O)CC2)cc1
[2]
  pIC50: < 5.00
[1]
  chromatographic logD: 2

## NC(=O)c1nc(-c2ccc([C@H]3CC[C@H](CC(=O)O)CC3)cc2)cnc1N
[2]
  pIC50: < 5.00
[1]
  chromatographic logD: 0.5

## CCc1nc(C)c(C(N)=O)nc1-c1ccc([C@H]2CC[C@H](CC(=O)O)CC2)cc1
[2]
  pIC50: < 5.04
[1]
  chromatographic logD: 1.7

## Cc1nc(C(C)C)c(-c2ccc([C@H]3CC[C@H](CC(=O)O)CC3)cc2)nc1C(N)=O
[2]
  pIC50: < 5.00
[1]
  chromatographic logD: 2.6

## Cc1nc(-c2ccccc2)c(-c2ccc([C@H]3CC[C@H](CC(=O)O)CC3)cc2)nc1C(N)=O
[2]
  pIC50: < 5.00
[1]
  chromatographic logD: 2.5

## Cc1nc(C)c(-c2ccc([C@H]3CC[C@H](CCO)CC3)cc2)nc1C(N)=O
[2]
  pIC50: 6.16
[12]
  Papp A→B: 58 ×10⁻⁶ cm/s
[5]
  solubility at 24 h: 4 µM (≈ 1.41 µg/mL)
[1]
  chromatographic logD: 3.1

## NC(=O)c1cncc(-c2ccc([C@H]3CC[C@H](CCO)CC3)cc2)n1
[2]
  pIC50: 5.92
[12]
  Papp A→B: 38 ×10⁻⁶ cm/s
[3]
  hepatocyte CLint at 1 µM: 36 µL/min/1e6 cells
[5]
  solubility at 24 h: 3 µM (≈ 0.976 µg/mL)
[6]
  fraction unbound: 0.028
[1]
  chromatographic logD: 2.3

## Cc1nc(C)c(-c2ccc([C@H]3CC[C@H](CC(N)=O)CC3)cc2)nc1C(N)=O
[3]
  hepatocyte CLint at 1 µM: 77 µL/min/1e6 cells
[6]
  fraction unbound: 0.13
[7]
  Papp A→B: 18 ×10⁻⁶ cm/s
[1]
  chromatographic logD: 1.7

## NC(=O)C[C@H]1CC[C@H](c2ccc(-c3cncc(C(N)=O)n3)cc2)CC1
[2]
  pIC50: 5.72
[12]
  Papp A→B: 13 ×10⁻⁶ cm/s
[5]
  solubility at 24 h: < 1 µM
[1]
  chromatographic logD: 0.9

## Cc1nc(C)c(-c2ccc([C@H]3CC[C@H](CC(=O)NC(C)(C)C(=O)O)CC3)cc2)nc1C(N)=O
[2]
  pIC50: 6.96
[13]
  bioavailability: 19%
[12]
  Papp A→B: 0.71 ×10⁻⁶ cm/s
[5]
  solubility at 24 h: 86 µM (≈ 38.9 µg/mL)
[6]
  fraction unbound: 0.078
[1]
  chromatographic logD: 0.7

## CC(C)(NC(=O)C[C@H]1CC[C@H](c2ccc(-c3cncc(C(N)=O)n3)cc2)CC1)C(=O)O
[2]
  pIC50: 5.96
[3]
  hepatocyte CLint at 1 µM: < 2 µL/min/1e6 cells
[5]
  solubility at 24 h: > 100 µM
[1]
  chromatographic logD: < 0.1

## Cc1nc(C)c(-c2ccc([C@H]3CC[C@H](CC(=O)NS(C)(=O)=O)CC3)cc2)nc1C(N)=O
[2]
  pIC50: 7.00
[12]
  Papp A→B: 2 ×10⁻⁶ cm/s
[3]
  hepatocyte CLint at 1 µM: 17 µL/min/1e6 cells
[5]
  solubility at 24 h: 100 µM (≈ 44.5 µg/mL)
[1]
  chromatographic logD: 0.9

## Cc1nc(C)c(-c2ccc([C@H]3CC[C@H](Cc4nnn[nH]4)CC3)cc2)nc1C(N)=O
[3]
  hepatocyte CLint at 1 µM: < 2 µL/min/1e6 cells
[6]
  fraction unbound: 0.009
[8]
  half-life: 9 h

## Cc1nc(C)c(-c2ccc([C@H]3CC[C@H](CCC(=O)O)CC3)cc2)nc1C(N)=O
[14]
  logD: 1.6

## Cc1nc(C)c(-c2ccc([C@H]3CC[C@H](CC(=O)O)CC3)c(F)c2)nc1C(N)=O
[1]
  chromatographic logD: 1.3

## Cc1nc(C)c(-c2ccc([C@H]3CC[C@H](CC(=O)O)CC3)c(Cl)c2)nc1C(N)=O
[1]
  chromatographic logD: 1.8

## Cc1nc(C)c(-c2ccc([C@H]3CC[C@@H](CC(=O)O)CC3)cc2)nc1C(N)=O
[2]
  pIC50: 6.37

## Cc1nc(C)c(-c2ccc([C@H]3CC[C@@H](CC(=O)O)CC3)c(F)c2)nc1C(N)=O
[1]
  chromatographic logD: 1.2

## Cc1nc(C)c(-c2ccc([C@H]3CC[C@@H](CC(=O)O)CC3)c(Cl)c2)nc1C(N)=O
[1]
  chromatographic logD: 1.5

## Cc1nc(C)c(-c2ccc3c(c2)CC[C@]32CC[C@@H](CC(=O)O)CC2)nc1C(N)=O
[2]
  pIC50: 7.52
[3]
  hepatocyte CLint at 1 µM: < 2 µL/min/1e6 cells
[4]
  pIC50: 5.62
[5]
  solubility at 24 h: 562 µM (≈ 221 µg/mL)
[6]
  fraction unbound: 0.013
[7]
  Papp A→B: 12 ×10⁻⁶ cm/s
[8]
  half-life: 7.5 h

## Cc1ncc(C(N)=O)nc1-c1ccc([C@H]2CC[C@H](C(=O)O)CC2)cc1
[3]
  hepatocyte CLint at 1 µM: 72 µL/min/1e6 cells
[5]
  solubility at 24 h: 1200 µM (≈ 407 µg/mL)
[1]
  chromatographic logD: 0.22

## Cc1ncc(C(N)=O)nc1-c1ccc([C@H]2CC[C@H](CC(=O)O)CC2)cc1
[2]
  pIC50: 6.51
[12]
  Papp A→B: 35 ×10⁻⁶ cm/s
[3]
  hepatocyte CLint at 1 µM: < 6 µL/min/1e6 cells
[4]
  pIC50: < 4.48
[5]
  solubility at 24 h: > 100 µM
[1]
  chromatographic logD: 0.3

## NC(=O)c1cncc(-c2ccc([C@H]3CC[C@H](CC(=O)O)CC3)cc2)n1
[2]
  pIC50: 5.72
[13]
  bioavailability: 62%
[12]
  Papp A→B: 29 ×10⁻⁶ cm/s
[4]
  pIC50: < 4.00
[6]
  fraction unbound: 0.035
[1]
  chromatographic logD: < 0.1

## Cc1ncc(-c2ccc([C@H]3CC[C@H](CC(=O)O)CC3)cc2)nc1C(N)=O
[14]
  logD: 1
